According to patent US9289496B2, “Lipid dipeptide and gel” (Nissan Chemical Industries, Ltd., priority 2008, dated 2016):
Residues, ends and D or L forms follow the SMILES beside them.

Key:
Assay type in all cases: physicochemical
[1] = Usable mediums: solubility and gel formation, conventional art vs palmitoyl-Gly-His; conditions: wide variety of mediums including 50 mM citrate buffer pH 5, 50 mM acetate buffer pH 5, ethanol/water with 80% or more ethanol
[2] = Evaluation of gelation of free N-palmitoyl-Gly-His in solution containing inorganic salt, amino acid or organic substance
Description: (§1) Free N-palmitoyl-Gly-His prepared in Example 4 was placed into a screw tube (Maruemu No. 1, manufactured by Maruemu Corp.). An aqueous solution dissolving each additive described in Table 7 was added into the screw tube so as to have a free N-palmitoyl-Gly-His concentration of 0.5% or 1% (w/v). The mixture was heated at 100° C. with a constant temperature heat block (manufactured by Nippon Genetics Co., Ltd.), and then allowed to stand at room temperature.
(§2) In Table, a sample that formed a gel is shown as “O”, a sample that partially formed a gel is shown as “A”, and a sample without evaluation is shown as “-”.

[3] = Evaluation of gelation of free N-palmitoyl-Gly-His in glycerin solution
Description: as §1, with “Each of the glycerin solutions having various concentrations shown” for “An aqueous solution dissolving each additive described”, “5” for “7”, “0.2%, 0.25%, 0.5%,” for “0.5%”
as §2

SMILES: CCCCCCCCCCCCCCCC(=O)NCC(=O)N[C@@H](Cc1c[nH]cn1)C(=O)O [Example 4, N-Palmitoyl-Gly-His] (HELM PEPTIDE1{[CCCCCCCCCCCCCCCC(=O)[*:2]].G.H}$$$$V2.0)
- Gel formation [1]: can form a gel
- Gelation ([2]; 0.5% (w/v), aqueous solution of Alanine 0.1 wt %): ◯
- Gelation ([2]; 0.5% (w/v), aqueous solution of Aspartic acid 0.27 wt %): ◯
- Gelation ([2]; 0.5% (w/v), aqueous solution of Glycine 0.1 wt %): ◯
- Gelation ([2]; 0.5% (w/v), aqueous solution of KCl 0.1 wt %): Δ
- Gelation ([2]; 0.5% (w/v), aqueous solution of KCl 0.5 wt %): Δ
- Gelation ([2]; 0.5% (w/v), aqueous solution of Lysine hydrochloride 0.1 wt %): Δ
- Gelation ([2]; 0.5% (w/v), aqueous solution of NaCl 0.1 wt %): Δ
- Gelation ([2]; 0.5% (w/v), aqueous solution of NaCl 0.5 wt %): ◯
- Gelation ([2]; 0.5% (w/v), aqueous solution of Phenoxyethanol 0.25 wt %): ◯
- Gelation ([2]; 1.0% (w/v), aqueous solution of KCl 0.1 wt %): ◯
- Gelation ([2]; 1.0% (w/v), aqueous solution of KCl 0.5 wt %): ◯
- Gelation ([2]; 1.0% (w/v), aqueous solution of NaCl 0.1 wt %): ◯
- Gelation ([2]; 1.0% (w/v), aqueous solution of NaCl 0.5 wt %): ◯
- Gelation ([2]; 1.0% (w/v), aqueous solution of Phenoxyethanol 0.25 wt %): ◯
- Gelation ([3]; 0.2% (w/v), mass fraction glycerin/water + glycerin 0.1): Δ
- Gelation ([3]; 0.2% (w/v), mass fraction glycerin/water + glycerin 0.3): Δ
- Gelation ([3]; 0.2% (w/v), mass fraction glycerin/water + glycerin 0.5): ◯
- Gelation ([3]; 0.2% (w/v), mass fraction glycerin/water + glycerin 0.6): ◯
- Gelation ([3]; 0.2% (w/v), mass fraction glycerin/water + glycerin 0.7): ◯
- Gelation ([3]; 0.25% (w/v), mass fraction glycerin/water + glycerin 0.1): ◯
- Gelation ([3]; 0.25% (w/v), mass fraction glycerin/water + glycerin 0.3): ◯
- Gelation ([3]; 0.25% (w/v), mass fraction glycerin/water + glycerin 0.4): ◯
- Gelation ([3]; 0.25% (w/v), mass fraction glycerin/water + glycerin 0.5): ◯
- Gelation ([3]; 0.25% (w/v), mass fraction glycerin/water + glycerin 0.6): ◯
- Gelation ([3]; 0.25% (w/v), mass fraction glycerin/water + glycerin 0.7): ◯
- Gelation ([3]; 0.5% (w/v), mass fraction glycerin/water + glycerin 0.1): ◯
- Gelation ([3]; 0.5% (w/v), mass fraction glycerin/water + glycerin 0.3): ◯
- Gelation ([3]; 0.5% (w/v), mass fraction glycerin/water + glycerin 0.4): ◯
- Gelation ([3]; 0.5% (w/v), mass fraction glycerin/water + glycerin 0.5): ◯
- Gelation ([3]; 0.5% (w/v), mass fraction glycerin/water + glycerin 0.6): ◯
- Gelation ([3]; 0.5% (w/v), mass fraction glycerin/water + glycerin 0.7): ◯
- Gelation ([3]; 1.0% (w/v), mass fraction glycerin/water + glycerin 0.1): ◯
- Gelation ([3]; 1.0% (w/v), mass fraction glycerin/water + glycerin 0.3): ◯
- Gelation ([3]; 1.0% (w/v), mass fraction glycerin/water + glycerin 0.4): ◯
- Gelation ([3]; 1.0% (w/v), mass fraction glycerin/water + glycerin 0.5): ◯
- Gelation ([3]; 1.0% (w/v), mass fraction glycerin/water + glycerin 0.6): ◯
- Gelation ([3]; 1.0% (w/v), mass fraction glycerin/water + glycerin 0.7): ◯
